# From PubChem BioAssay (NCI)
#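 Dose response: 5 concentrations. Exposure: 48 h. Format: 96-well plates. Endpoint: linear interpolation; highest concentration if not reached. Here, GI50 denotes the concentration required for 50% inhibition of growth. TGI: total growth inhibition.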
# Assays:
# Experiment in all cases: NCI anticancer screen, dose series, 48 h
# HL-60(TB) leukemia = tested on: HL-60(TB) leukemia
# PC-3 prostate = tested on: PC-3 prostate
# IGROV1 ovarian = tested on: IGROV1 ovarian
# 786-0 renal = tested on: 786-0 renal
# RPMI-8226 leukemia = tested on: RPMI-8226 leukemia
# LOX IMVI melanoma = tested on: LOX IMVI melanoma
# MOLT-4 leukemia = tested on: MOLT-4 leukemia
# CAKI-1 renal = tested on: CAKI-1 renal
# NCI-H460 lung = tested on: NCI-H460 lung
# OVCAR-3 ovarian = tested on: OVCAR-3 ovarian
# SF-295 CNS = tested on: SF-295 CNS
# BT-549 breast = tested on: BT-549 breast
# HCT-116 colon = tested on: HCT-116 colon
# OVCAR-8 ovarian = tested on: OVCAR-8 ovarian
# RXF 393 renal = tested on: RXF 393 renal
# NCI-H23 lung = tested on: NCI-H23 lung
# MCF7 breast = tested on: MCF7 breast
# M14 melanoma = tested on: M14 melanoma
# DU-145 prostate = tested on: DU-145 prostate
# SF-539 CNS = tested on: SF-539 CNS
# NCI-H522 lung = tested on: NCI-H522 lung
# ACHN renal = tested on: ACHN renal
# T-47D breast = tested on: T-47D breast
# CCRF-CEM leukemia = tested on: CCRF-CEM leukemia
# EKVX NSCLC = tested on: EKVX NSCLC
# KM12 colon = tested on: KM12 colon
# HOP-92 NSCLC = tested on: HOP-92 NSCLC
# TK-10 renal = tested on: TK-10 renal
# OVCAR-5 ovarian = tested on: OVCAR-5 ovarian
# COLO 205 colon = tested on: COLO 205 colon
# SNB-75 CNS = tested on: SNB-75 CNS
# SNB-19 CNS = tested on: SNB-19 CNS
# K-562 leukemia = tested on: K-562 leukemia
# UACC-62 melanoma = tested on: UACC-62 melanoma
# HT29 colon = tested on: HT29 colon
# HS 578T breast = tested on: HS 578T breast
# NCI-H226 lung = tested on: NCI-H226 lung
# A498 renal = tested on: A498 renal
# HCC-2998 colon = tested on: HCC-2998 colon
# UACC-257 melanoma = tested on: UACC-257 melanoma
# HCT-15 colon = tested on: HCT-15 colon
# SK-OV-3 ovarian = tested on: SK-OV-3 ovarian
# SF-268 CNS = tested on: SF-268 CNS
# A549 NSCLC = tested on: A549 NSCLC
# SK-MEL-5 melanoma = tested on: SK-MEL-5 melanoma
# OVCAR-4 ovarian = tested on: OVCAR-4 ovarian
# MDA-MB-231 breast = tested on: MDA-MB-231 breast
# MDA-MB-435 = tested on: MDA-MB-435
# HOP-62 NSCLC = tested on: HOP-62 NSCLC
# SN12C renal = tested on: SN12C renal
# MALME-3M melanoma = tested on: MALME-3M melanoma
# SK-MEL-28 melanoma = tested on: SK-MEL-28 melanoma
# NCI/ADR-RES ovarian = tested on: NCI/ADR-RES ovarian
# SW-620 colon = tested on: SW-620 colon
# UO-31 renal = tested on: UO-31 renal
compound,measurement,setting,value
O=C1c2ccn(CCCCN(CCO)CCO)c2C(=O)c2c1c(O)c1ccccc1c2O,GI50,HL-60(TB) leukemia,3.17 µM
same,GI50,PC-3 prostate,3.05 µM
same,TGI,PC-3 prostate,> 20.7 µM
same,GI50,IGROV1 ovarian,4.97 µM
same,TGI,IGROV1 ovarian,> 100 µM
same,GI50,786-0 renal,5.39 µM
same,TGI,786-0 renal,> 48.4 µM
same,GI50,RPMI-8226 leukemia,5.62 µM
same,TGI,RPMI-8226 leukemia,14.8 µM
same,GI50,LOX IMVI melanoma,1.04 µM
same,TGI,LOX IMVI melanoma,3.64 µM
same,GI50,MOLT-4 leukemia,2.55 µM
same,GI50,CAKI-1 renal,8.24 µM
same,TGI,CAKI-1 renal,21.7 µM
same,GI50,NCI-H460 lung,7.1 µM
same,TGI,NCI-H460 lung,26.1 µM
same,GI50,OVCAR-3 ovarian,22.2 µM
same,TGI,OVCAR-3 ovarian,> 100 µM
same,GI50,SF-295 CNS,10.8 µM
same,TGI,SF-295 CNS,42 µM
same,GI50,BT-549 breast,20.7 µM
same,TGI,BT-549 breast,60.9 µM
same,GI50,HCT-116 colon,2.04 µM
same,GI50,OVCAR-8 ovarian,3.61 µM
same,TGI,OVCAR-8 ovarian,> 100 µM
same,GI50,RXF 393 renal,5.19 µM
same,TGI,RXF 393 renal,> 58.6 µM
same,GI50,NCI-H23 lung,1.66 µM
same,TGI,NCI-H23 lung,3.02 µM
same,GI50,MCF7 breast,6.12 µM
same,TGI,MCF7 breast,> 58.1 µM
same,GI50,M14 melanoma,2.37 µM
same,GI50,DU-145 prostate,15.2 µM
same,TGI,DU-145 prostate,34.8 µM
same,GI50,SF-539 CNS,7.88 µM
same,TGI,SF-539 CNS,> 80.6 µM
same,GI50,NCI-H522 lung,9.29 µM
same,TGI,NCI-H522 lung,> 92.7 µM
same,GI50,ACHN renal,21.6 µM
same,TGI,ACHN renal,57.7 µM
same,GI50,T-47D breast,22.9 µM
same,TGI,T-47D breast,> 69.6 µM
same,GI50,CCRF-CEM leukemia,2.07 µM
same,TGI,CCRF-CEM leukemia,11.2 µM
same,GI50,EKVX NSCLC,23.3 µM
same,TGI,EKVX NSCLC,> 75.7 µM
same,GI50,KM12 colon,1.75 µM
same,TGI,KM12 colon,3.59 µM
same,GI50,HOP-92 NSCLC,17.7 µM
same,TGI,HOP-92 NSCLC,50.8 µM
same,GI50,TK-10 renal,6.66 µM
same,TGI,TK-10 renal,29.6 µM
same,GI50,OVCAR-5 ovarian,19.1 µM
same,TGI,OVCAR-5 ovarian,45 µM
same,GI50,COLO 205 colon,4.45 µM
same,TGI,COLO 205 colon,> 100 µM
same,GI50,SNB-75 CNS,21.4 µM
same,TGI,SNB-75 CNS,65.5 µM
same,GI50,SNB-19 CNS,20.2 µM
same,TGI,SNB-19 CNS,> 100 µM
same,GI50,K-562 leukemia,4.41 µM
same,TGI,K-562 leukemia,> 100 µM
same,GI50,UACC-62 melanoma,1.09 µM
same,TGI,UACC-62 melanoma,2.77 µM
same,GI50,HT29 colon,3.39 µM
same,TGI,HT29 colon,> 100 µM
same,GI50,HS 578T breast,17.4 µM
same,TGI,HS 578T breast,59.3 µM
same,GI50,NCI-H226 lung,64 µM
same,TGI,NCI-H226 lung,> 100 µM
same,GI50,A498 renal,13.4 µM
same,TGI,A498 renal,39.7 µM
same,GI50,HCC-2998 colon,3.55 µM
same,TGI,HCC-2998 colon,14.2 µM
same,GI50,UACC-257 melanoma,4.83 µM
same,TGI,UACC-257 melanoma,24.4 µM
same,GI50,HCT-15 colon,0.948 µM
same,TGI,HCT-15 colon,2.14 µM
same,GI50,SK-OV-3 ovarian,7.74 µM
same,TGI,SK-OV-3 ovarian,> 43.3 µM
same,GI50,SF-268 CNS,13.7 µM
same,TGI,SF-268 CNS,> 63.2 µM
same,GI50,A549 NSCLC,2.32 µM
same,TGI,A549 NSCLC,7.33 µM
same,GI50,SK-MEL-5 melanoma,13.2 µM
same,TGI,SK-MEL-5 melanoma,78.9 µM
same,GI50,OVCAR-4 ovarian,31.7 µM
same,TGI,OVCAR-4 ovarian,> 100 µM
same,GI50,MDA-MB-231 breast,1.89 µM
same,TGI,MDA-MB-231 breast,3.97 µM
same,GI50,MDA-MB-435,3.04 µM
same,GI50,HOP-62 NSCLC,16.3 µM
same,TGI,HOP-62 NSCLC,> 50.5 µM
same,GI50,SN12C renal,6.85 µM
same,TGI,SN12C renal,25 µM
same,GI50,MALME-3M melanoma,10 µM
same,TGI,MALME-3M melanoma,35.2 µM
same,GI50,SK-MEL-28 melanoma,5.05 µM
same,TGI,SK-MEL-28 melanoma,> 100 µM
same,GI50,NCI/ADR-RES ovarian,3.31 µM
same,TGI,NCI/ADR-RES ovarian,12.7 µM
same,GI50,SW-620 colon,3.12 µM
same,TGI,SW-620 colon,14.7 µM
same,GI50,UO-31 renal,12.5 µM
same,TGI,UO-31 renal,> 100 µM
